Experimental data from paper PMC11784839, “Monoaminergic neurotransmitters are bimodal effectors of tau aggregation” (Science Advances, 2025).

Target: tau (Homo sapiens, UniProt P10636)
Test: MCE Phenols Library screening, tau biosensor cell seeding assay (AvZ)
Type: cell-based
Conditions: for Z repl 1 / Z Repl 2: Z score; for Z repl 1 / raw data 1: replicate 1; for Z Repl 2 / raw data 2: replicate 2; for AvZ (average z score of seeding, SDs from the mean level of seeding): 10 μM phenol in cell cultures, AD brain homogenate preincubated 16 hours, two biological replicates, positive = catalyzes seeding, negative = inhibits
[1] = average Z score of the two replicates, tau seeding
[2] = average Z score of the two replicates, MCE Phenols Library screen
[3] = average puncta of the two replicates
[4] = average Z score of two replicates, Phenols Library screen

Sequence of tau (P10636 623-695 limits assumed): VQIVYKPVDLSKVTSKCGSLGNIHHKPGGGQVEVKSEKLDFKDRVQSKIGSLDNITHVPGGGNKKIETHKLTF

Row | Z repl 1 | Z Repl 2 | av Z [1] | av puncta (average of raw data 1 and 2) | raw data 1 (puncta) | raw data 2 (puncta) | av Z [2] | av puncta [3] | av Z [4] | raw data 1 (raw puncta) | raw data 2 (raw puncta) | SMILES | AvZ (average z score of seeding, SDs from the mean level of seeding)
1 | -0.046 | 0.369 | 0.161 | 21249.5 | 25794.8 | 16704.1 |  |  |  |  |  | O=C(/C=C/c1ccc(O)cc1)c1ccc(O[C@@H]2O[C@H](CO)[C@@H](O)[C@H](O)[C@H]2O)cc1O [Neoisoliquiritin] | 
2 | -0.356 | -0.555 |  |  | 22080.4 | 6836.97 | -0.455 | 14458.7 |  |  |  | O=C1C[C@@H](c2ccc(O)cc2)Oc2cc(O[C@@H]3O[C@H](CO)[C@@H](O)[C@H](O)[C@H]3O)ccc21 [Neoliquiritin] | 
3 | -0.364 | 0.129 |  | 18059 | 21978.8 | 14139.2 |  |  | -0.118 |  |  | CC(=O)c1c(C)cc2cccc(O)c2c1O [Nepodin] | 
4 | -0.55 | -0.108 |  |  |  |  | -0.329 | 15677.7 |  | 19746.6 | 11608.9 | COc1ccc(-c2cc(=O)c3c(O)c(OC)c(O)c(OC)c3o2)cc1 [Nevadensin] | 
5 | -0.326 | 0.012 |  | 17666.9 | 22434.9 | 12898.9 |  |  | -0.157 |  |  | CC(Cc1ccc(O)c(O)c1)C(C)Cc1ccc(O)c(O)c1 (stereo not drawn) [Nordihydroguaiaretic acid] | 
6 | -0.363 | -0.457 |  |  |  |  | -0.41 | 14938 |  | 21994.8 | 7881.17 | Cc1cc(=O)c2c(O)cc(O)cc2o1 [Noreugenin] | 
7 | 0.56 | 0.239 |  | 24195.2 | 33071.8 | 15318.5 |  |  |  |  |  | CC(C)(O)CCc1c(O)cc(O)c2c(=O)c(O)c(-c3ccc(O)cc3)oc12 [Noricaritin] | 0.399
8 | -0.236 | -0.647 |  |  |  |  | -0.441 | 14688.3 |  | 23518.4 | 5858.11 | O=c1c2c(O)cc(O)cc2oc2c(O)ccc(O[C@@H]3O[C@H](CO)[C@@H](O)[C@H](O)[C@H]3O)c12 [Norswertianolin] | 
9 | -0.966 | -0.652 |  | 10276.7 | 14754.3 | 5799.06 | -0.809 |  |  |  |  | O=c1cc(-c2ccccc2)oc2c(O)c(O)cc(O)c12 [Norwogonin] | 
10 | 0.135 | -0.221 |  | 19189.1 | 27969 | 10409.2 |  |  | -0.043 |  |  | CC(C(=O)c1ccc(O)cc1O)c1ccc(O)cc1 (stereo not drawn) [O-Desmethylangolensin] | 
11 | -0.23 | 0.069 |  | 18542 | 23582.4 | 13501.7 |  |  | -0.081 |  |  | COc1c(O)c(C)cc2c1C(=O)c1c(O)cccc1C2=O [Obtusifolin] | 
12 | -0.991 | -0.213 |  |  | 14447.4 | 10495.4 | -0.602 | 12471.4 |  |  |  | C[C@@H]1CC(=O)c2c(ccc3c2C(=O)c2cccc(O)c2C3=O)C1 [Ochromycinone] | 
13 | -0.643 | 0.033 |  |  |  |  | -0.305 | 15871.9 |  | 18628.3 | 13115.6 | COc1cc(CCC(O)CC(O)CCc2ccc(O)c(OC)c2)ccc1O (stereo not drawn) [Octahydrocurcumin] | 
14 | -1.882 | -1.187 |  | 1923.27 | 3755.83 | 90.703 | -1.534 |  |  |  |  | O=C(/C=C/c1ccc(O)c(O)c1)c1ccc(O)c(O)c1O [Okanin] | 
15 | -0.169 | 0.358 |  | 20456.3 | 24324.1 | 16588.6 |  |  | 0.095 |  |  | COc1ccc(CC(=O)c2ccc(O)cc2O)cc1 [Ononetin] | 
16 | -1.362 | -0.316 |  | 9697.38 | 9999.31 | 9395.45 |  |  |  |  |  | Cc1cc(O)cc(O)c1 [Orcinol] | -0.839
17 | -0.164 | -0.982 |  |  | 24381.7 | 2282.35 | -0.573 | 13332 |  |  |  | O=c1cc(-c2ccccc2)oc2cc(O[C@@H]3O[C@H](CO[C@@H]4O[C@H](CO)[C@@H](O)[C@H](O)[C@H]4O)[C@@H](O)[C@H](O)[C@H]3O)c(O)c(O)c12 [Oroxin B] | 
18 | -0.296 | 0.55 | 0.127 | 20714.9 | 22792.7 | 18637 |  |  |  |  |  | COc1c(O[C@@H]2O[C@H](C(=O)O)[C@@H](O)[C@H](O)[C@H]2O)cc2oc(-c3ccccc3)cc(=O)c2c1O [Oroxylin A-7-O-glucuronide] | 
19 | -0.11 | -0.323 |  |  |  |  | -0.217 | 17171.6 |  | 25029.5 | 9313.67 | COc1c(O)cc2oc(-c3ccccc3)cc(=O)c2c1O [Oroxylin A] | 

Row | SMILES | Z repl 1 | Z Repl 2 | av Z [1] | av puncta (average of raw data 1 and 2) | raw data 1 (puncta) | raw data 2 (puncta) | av Z [2] | av puncta [3] | av Z [4] | raw data 1 (raw puncta) | raw data 2 (raw puncta) | AvZ (average z score of seeding, SDs from the mean level of seeding)
20 | C[C@@H]1O[C@@H](O[C@H]2C(=O)c3c(O)cc(O)cc3O[C@H]2c2ccc(O)c(O)c2)[C@H](O)[C@H](O)[C@H]1O [Neoisoastilbin] | 0.661 | 0.303 | 0.482 | 25148.1 | 34290.2 | 16006 |  |  |  |  |  | 
21 | COc1c(O)cc2oc(-c3ccc(O)c(O)c3)cc(=O)c2c1O [Nepetin] | -0.728 | -0.807 |  | 10877.8 | 17608.6 | 4146.93 | -0.768 |  |  |  |  | 
22 | O=C1O[C@@H]2[C@@H](O)[C@H](O)[C@@H](CO)O[C@H]2c2c1cc(O)c(O)c2O [Norbergenin] | -0.528 | 0.442 |  | 18743.5 | 20005.8 | 17481.2 |  |  | -0.043 |  |  | 
23 | COc1cc(CNC(=O)CCCCCC(C)C)ccc1O [Nordihydrocapsaicin] | -0.001 | -0.682 |  |  |  |  |  | 15905.5 |  | 26333.1 | 5477.91 | -0.342
24 | Cl.NCC(O)c1ccc(O)cc1 (stereo not drawn) [Octopamine (hydrochloride)] | -0.187 | 0.177 |  | 19376.3 | 24099.8 | 14652.9 |  |  |  |  |  | -0.005
25 | O=c1cc(-c2ccc(O)c(O)c2)oc2c([C@@H]3O[C@H](CO)[C@@H](O)[C@H](O)[C@H]3O)c(O)cc(O)c12 [Orientin] | 0.558 | -0.368 |  | 20945 | 33050.1 | 8839.87 |  |  | 0.095 |  |  | 
